Experimental data reported in ChEMBL document CHEMBL4308868 (Bioorg Med Chem Lett, 2019).

target: T1, Tyrosinase (Agaricus bisporus, UniProt O42713)
T1 sequence (O42713 whole entry): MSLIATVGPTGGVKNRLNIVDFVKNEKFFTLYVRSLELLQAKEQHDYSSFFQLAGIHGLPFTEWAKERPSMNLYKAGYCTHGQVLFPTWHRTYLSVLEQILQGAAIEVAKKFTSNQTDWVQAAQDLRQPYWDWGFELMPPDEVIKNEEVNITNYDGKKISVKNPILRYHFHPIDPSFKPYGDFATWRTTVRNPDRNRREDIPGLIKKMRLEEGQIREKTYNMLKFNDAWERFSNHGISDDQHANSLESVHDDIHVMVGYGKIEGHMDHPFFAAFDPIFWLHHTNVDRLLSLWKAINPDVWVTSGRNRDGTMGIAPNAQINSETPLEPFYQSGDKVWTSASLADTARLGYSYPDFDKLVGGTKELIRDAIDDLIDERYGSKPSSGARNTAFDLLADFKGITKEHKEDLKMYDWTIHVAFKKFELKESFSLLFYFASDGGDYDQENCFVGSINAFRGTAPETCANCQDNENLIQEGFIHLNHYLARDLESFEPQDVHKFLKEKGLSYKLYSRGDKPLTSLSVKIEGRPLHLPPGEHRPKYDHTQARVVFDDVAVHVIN
Description: Inhibition of mushroom tyrosinase using L-tyrosine as substrate measured after 20 mins by spectrophotometric method

Compound	IC50
CCOc1cc(C(C)C)ccc1C	> 500 µM
CCOc1cc(C(C)C)c(C(=O)CCC(=O)OC)cc1C	> 500 µM
CCOc1cc(C)ccc1C(C)C	> 500 µM
CCCOC(=O)CCC(=O)c1cc(C)c(OCC)cc1C(C)C	218 µM
CCCCOC(=O)CCC(=O)c1cc(C)c(OCC)cc1C(C)C	176 µM
C/C=C/COC(=O)CCC(=O)c1cc(C)c(OCC)cc1C(C)C	244 µM
CCOC(=O)CCC(=O)c1cc(C)c(OCC)cc1C(C)C	> 500 µM
CCOc1cc(C)c(C(=O)CCC(=O)O)cc1C(C)C	> 500 µM
CCOc1cc(C(C)C)c(C(=O)CCC(=O)O)cc1C	> 500 µM
Cc1ccc(C(C)C)cc1O [CARVACROL]	> 500 µM

Continued, values first:

IC50	Compound
> 500 µM	CCOc1cc(C(C)C)c(C(=O)CCC(=O)OCc2ccccc2)cc1C
102 µM	C/C=C/COC(=O)CCC(=O)c1cc(C(C)C)c(OCC)cc1C
191 µM	CCCCOC(=O)CCC(=O)c1cc(C(C)C)c(OCC)cc1C
126 µM	C=CCOC(=O)CCC(=O)c1cc(C(C)C)c(OCC)cc1C
> 500 µM	CCOc1cc(C)c(C(=O)CCC(=O)OCc2ccccc2)cc1C(C)C
> 500 µM	CCOc1cc(C)c(C(=O)CCC(=O)OC)cc1C(C)C
154 µM	CCCOC(=O)CCC(=O)c1cc(C(C)C)c(OCC)cc1C
212 µM	CCOC(=O)CCC(=O)c1cc(C(C)C)c(OCC)cc1C
